Literature values in patent publication US7375230B2, “Fermentation and purification of migrastatin and analog” (Kosan Biosciences, Inc., priority 2000, dated 2008).

Tests used:
[1] = system: human esophageal cancer EC17 cells; details: compared with clarithromycin and erythromycin
[2] = system: mouse melanoma B16 cells; details: compared with clarithromycin and erythromycin

CO[C@H]1/C=C/CC/C=C/C(=O)O[C@H]([C@H](C)C(=O)CCCC2CC(=O)NC(=O)C2)/C(C)=C\[C@@H](C)[C@@H]1O [Migrastatin, migrastatin]
effectiveness against the migration of cells [1]: more effective than clarithromycin and erythromycin
effectiveness against the migration of cells [2]: more effective than clarithromycin and erythromycin
